{"source": "patent US12102607B2", "about": "“C5aR inhibitors for use in the treatment of chemotherapy-induced iatrogenic pain” (Dompe' Farmaceutici S.P.A., priority 2017, dated 2024)", "key": {"[1]": {"test_system": "paclitaxel-induced mechanical allodynia in male Balb/C mice", "assay": "Paclitaxel-induced mechanical allodynia, Dynamic Plantar Aesthesiometer, DF3966A", "assay_type": "in vivo", "settings": "30 mg/kg/os twice daily day 1 to 14; days 3, 5, 7, 10 and 14", "description": "(§1) For the experiments with DF3966A, animals were housed in the animal care facility of the Department of Pharmacy of the University of Naples, Italy, in a room with controlled temperature (22±1° C.), humidity (60±10%) and light (12 h per day); food and water were available ad libitum. All behavioural tests were performed between 9:00 AM and 5:00 PM, and the animals were used only once. Animal care and manipulations were conducted in conformity with International and National law and policies (EU Directive 2010/63/EU for animal experiments, ARRIVE guidelines and the Basel declaration including the 3R concept). The procedure reported here were approved by the Institutional Committee on the Ethics of Animal Experiments (CVS) of the University of Naples Federico II and by Ministero della Salute under protocol n. 2014-00884607.\n(§2) The protocol used was performed according POLOMANO et al., 2001, adapted to mice. The animals received paclitaxel 4 mg/kg intraperitoneally (i.p.) for four alternate days (days 1, 3, 5, and 7). During treatment period, mechanical and cold allodynia were measured 4 hours after the injection of paclitaxel.\nDF3966A was administrated 30 mg/kg/os from 1st at 14th day (twice daily; 8.00 am and 20.00 pm). […]\nIn DF3966A experiments, sensitivity to tactile stimulation was measured using the Dynamic Plantar Aesthesiometer (DPA, Ugo Basile, Italy). […]"}, "[2]": {"test_system": "paclitaxel-induced cold allodynia in male Balb/C mice", "assay": "Paclitaxel-induced cold allodynia, DF3966A", "assay_type": "in vivo", "settings": "30 mg/kg/os twice daily day 1 to 14; days 3, 5, 7, 10 and 14", "description": "as §1\nas §2, with “paclitaxel. […]” for “paclitaxel.”\nIn the same apparatus of von Frey test, and nearly 15 minutes after the mechanical test, was performed the acetone test. […] All movements as licking, flinching or lifting of paw were recorded with a chronometer in a total testing time of 2 minutes."}}, "data": [{"smiles": "C[C@H](c1ccc(Nc2nc(C(F)(F)F)cs2)cc1)c1nnn[nH]1", "note": "[DF3966A, 1-N-[4-[(1R)-1-(1H-tetrazol-5-yl)ethyl]phenyl}-4-(trifluoromethyl)-11,3-thiazol-2-amine]", "values": [{"measurement": "mechanical allodynia vs vehicle control animals", "setting": "[1]", "value": "significant reduction of mechanical allodynia"}, {"measurement": "cold allodynia vs vehicle control animals", "setting": "[2]", "value": "significant reduction of cold allodynia"}]}]}
